Experimental findings from PubChem BioAssay (NCI) are described below.

“And” between values parts separate entries of the source, which are not always exact repeats. Equal values may be shown once.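 Each compound was tested at five concentrations against cells in 96-well plates for 48 hours. GI50 marks 50% less growth. TGI denotes the concentration required for complete inhibition of growth.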

In the first test the test system is MCF7 breast. Put plainly: inhibition of tumour cell growth, NCI panel, 48 h.
Regarding `C=C(CN1CCc2ccccc2C1)c1ccc(C(=O)Nc2cnccn2)cc1`, the GI50 was > 100 µM and the TGI was > 100 µM.
For `CCCCC/C(C=C(C#N)C#N)=C/c1ccccc1`, the GI50 is 3.46 µM and the TGI amounted to 17.4 µM.
In the case of `CSc1cc(N=Nc2nc3ccccc3s2)c2ccccc2c1O`, the GI50 is 9.51 µM and the TGI came out at 28.8 µM.
In turn, `CCOC(=O)/C=C(/C(=O)OCC)n1cc(Cl)c(=O)n(CC(=O)OCC)c1=O` had a TGI of 46.3 µM.
Consider `O=C1NNC=Nc2ccc(cc2)S(=O)(=O)c2ccc(cc2)N=CNNC1=O`, for which the TGI was > 100 µM.
As to `COc1cc2c3c(n(C)c(=O)c2cc1OC)-c1cc2c(cc1/C3=C\CCCN1C(=O)c3ccccc3C1=O)OCO2`, the GI50 was 6.94 µM and the TGI is > 40 µM.
For `CSc1ccc(C2=NN(C(C)=O)C(c3cc(C)cs3)C2)cc1` (stereo not drawn) the same measures were 16.2 µM and 46.3 µM.
As to `COc1cc(/C=C/c2cc(/C=C/c3ccc(O)c(OC)c3)n(-c3ccccc3)n2)ccc1O`, the GI50 was 0.265 µM and the TGI was determined as 1.7 µM.
Consider `O=C1CNCCCN2CCN(CCCNCC(=O)Nc3ccc(cc3)S(=O)(=O)c3ccc(cc3)NC(=O)CNCCCN3CCN(CCCNCC(=O)Nc4ccc(cc4)S(=O)(=O)c4ccc(cc4)N1)CC3)CC2`, for which the TGI is > 100 µM.
Consider `N#Cc1ccc(C#Cc2ccccc2C#CCCCCO)cc1`, for which the GI50 is 22.1 µM and the TGI was 45.6 µM.
On the same counts, the results for `Cc1ccc(-c2c3c([nH]c(=O)c2C#N)-c2cc(F)ccc2OC3)cc1` are 52.7 µM and > 100 µM.

Another test has as its system 786-0 renal. Description: inhibition of tumour cell growth, NCI panel, 48 h.
Regarding `CCc1c(Oc2ccc(C(C)=O)cc2)c2ccccc2[nH]c1=O`, the GI50 was 21.7 µM and the TGI is > 72.1 µM.
For the molecule `Cn1c(N2NC(=O)C(N=Nc3ccc(S(N)(=O)=O)cc3)C2=O)nc(-c2ccco2)c(C#N)c1=O` (stereo not drawn), the GI50 is > 50 µM and the TGI was > 50 µM.
With `Cc1ccc(CS/C(=C\c2ccc([N+](=O)[O-])cc2)C(=O)c2ccc(F)cc2)cc1`, the GI50 was 2.11 µM and the TGI came to 4.99 µM.
In the case of `O=C(O)Cn1ccc(=O)c2ccc([N+](=O)[O-])cc21`, the TGI was > 100 µM.
For `O=C(c1ccco1)c1nc2ccc(C(F)(F)F)cc2[n+]([O-])c1C(F)(F)F`, the GI50 was > 100 µM and the TGI was > 100 µM.
For the molecule `C=C(CN1CCc2ccccc2C1)c1ccc(C(=O)Nc2cnccn2)cc1`, the GI50 was 25.4 µM and the TGI is > 100 µM.
In the case of `CCCCC/C(C=C(C#N)C#N)=C/c1ccccc1`, the GI50 was 7.45 µM and the TGI turned out to be 21.6 µM.
`O=C(CI)NC1Oc2ccccc2-c2oc(=O)c(-c3ccccc3)cc21` (stereo not drawn): the GI50 is 0.441 µM and the TGI was 1.58 µM.
For `O=C1c2cccc(NCCN=Cc3cc(O)ccc3O)c2C(=O)c2c(NCCN=Cc3cc(O)ccc3O)cccc21` the same measures were 1.88 µM and 4.69 µM.
For `CSc1cc(N=Nc2nc3ccccc3s2)c2ccccc2c1O` the same measures were 9.82 µM and 18.4 µM.
Consider `CCOC(=O)/C=C(/C(=O)OCC)n1cc(Cl)c(=O)n(CC(=O)OCC)c1=O`, for which the GI50 was 2.78 µM; the TGI is 2.48 µM and 7.5 µM.
Regarding `O=C1NNC=Nc2ccc(cc2)S(=O)(=O)c2ccc(cc2)N=CNNC1=O`, the TGI is > 100 µM.
Consider `COc1cc2c3c(n(C)c(=O)c2cc1OC)-c1cc2c(cc1/C3=C\CCCN1C(=O)c3ccccc3C1=O)OCO2`, for which the GI50 was > 40 µM and the TGI is > 40 µM.
On to `CSc1ccc(C2=NN(C(C)=O)C(c3cc(C)cs3)C2)cc1` (stereo not drawn), for which the GI50 is 40 µM and the TGI was > 100 µM.
On the same counts, the results for `Cn1cc(-c2cnc3ccc(NC(=O)Nc4ccc(F)c(Br)c4)cc3n2)cn1` are 1.98 µM and 5.9 µM.
As for `COc1cc(/C=C/c2cc(/C=C/c3ccc(O)c(OC)c3)n(-c3ccccc3)n2)ccc1O`, the GI50 was 0.582 µM and the TGI came to 1.83 µM.
Take `O=C1CNCCCN2CCN(CCCNCC(=O)Nc3ccc(cc3)S(=O)(=O)c3ccc(cc3)NC(=O)CNCCCN3CCN(CCCNCC(=O)Nc4ccc(cc4)S(=O)(=O)c4ccc(cc4)N1)CC3)CC2`: the TGI was 38.9 µM.
`N#Cc1ccc(C#Cc2ccccc2C#CCCCCO)cc1`: the GI50 was 4.39 µM and the TGI amounted to 18.1 µM.
As for `Cc1ccc(-c2c3c([nH]c(=O)c2C#N)-c2cc(F)ccc2OC3)cc1`, the GI50 is 64.4 µM and the TGI was > 100 µM.

The test system of the next test is T-47D breast. Put plainly: inhibition of tumour cell growth, NCI panel, 48 h.
Take `CCc1c(Oc2ccc(C(C)=O)cc2)c2ccccc2[nH]c1=O`: the GI50 is 4.07 µM and the TGI was found to be 24.6 µM.
Turning to `Cn1c(N2NC(=O)C(N=Nc3ccc(S(N)(=O)=O)cc3)C2=O)nc(-c2ccco2)c(C#N)c1=O` (stereo not drawn), the GI50 is 7.58 µM and the TGI amounted to 19.7 µM.
On the same counts, the results for `Cc1ccc(CS/C(=C\c2ccc([N+](=O)[O-])cc2)C(=O)c2ccc(F)cc2)cc1` are 4.53 µM and 22.4 µM.
Take `O=C(O)Cn1ccc(=O)c2ccc([N+](=O)[O-])cc21`: the TGI is > 100 µM.
Take `C=C(CN1CCc2ccccc2C1)c1ccc(C(=O)Nc2cnccn2)cc1`: the GI50 was > 100 µM and the TGI was > 100 µM.
Regarding `CCCCC/C(C=C(C#N)C#N)=C/c1ccccc1`, the GI50 was 4.93 µM and the TGI was 26.1 µM.
With `O=C(CI)NC1Oc2ccccc2-c2oc(=O)c(-c3ccccc3)cc21` (stereo not drawn), the GI50 was 1.79 µM and the TGI is 4.44 µM.
For `O=C1c2cccc(NCCN=Cc3cc(O)ccc3O)c2C(=O)c2c(NCCN=Cc3cc(O)ccc3O)cccc21`, the GI50 is 2.35 µM and the TGI came out at 7.35 µM.
`CSc1cc(N=Nc2nc3ccccc3s2)c2ccccc2c1O`: the GI50 was 3.64 µM and the TGI was > 50 µM.
Consider `CCOC(=O)/C=C(/C(=O)OCC)n1cc(Cl)c(=O)n(CC(=O)OCC)c1=O`, for which the GI50 is 1.31 µM; the TGI was 18.9 µM and 4.28 µM.
Regarding `O=C1NNC=Nc2ccc(cc2)S(=O)(=O)c2ccc(cc2)N=CNNC1=O`, the TGI is > 100 µM.
Turning to `COc1cc2c3c(n(C)c(=O)c2cc1OC)-c1cc2c(cc1/C3=C\CCCN1C(=O)c3ccccc3C1=O)OCO2`, the GI50 was > 40 µM and the TGI was > 40 µM.
For `CSc1ccc(C2=NN(C(C)=O)C(c3cc(C)cs3)C2)cc1` (stereo not drawn), the GI50 was 13 µM and the TGI was > 100 µM.
As for `Cn1cc(-c2cnc3ccc(NC(=O)Nc4ccc(F)c(Br)c4)cc3n2)cn1`, the GI50 was 0.631 µM and the TGI was 2.27 µM.
With `COc1cc(/C=C/c2cc(/C=C/c3ccc(O)c(OC)c3)n(-c3ccccc3)n2)ccc1O`, the GI50 is 0.645 µM and the TGI worked out at 2.6 µM.
Molecule `O=C1CNCCCN2CCN(CCCNCC(=O)Nc3ccc(cc3)S(=O)(=O)c3ccc(cc3)NC(=O)CNCCCN3CCN(CCCNCC(=O)Nc4ccc(cc4)S(=O)(=O)c4ccc(cc4)N1)CC3)CC2` came in with a TGI of 97.2 µM.
`N#Cc1ccc(C#Cc2ccccc2C#CCCCCO)cc1`: the GI50 is 13 µM and the TGI is 28 µM.
For the molecule `Cc1ccc(-c2c3c([nH]c(=O)c2C#N)-c2cc(F)ccc2OC3)cc1`, the GI50 is 80.4 µM and the TGI was > 100 µM.

The subject of the next test is HCC-2998 colon. Description: inhibition of tumour cell growth, NCI panel, 48 h.
On to `CCc1c(Oc2ccc(C(C)=O)cc2)c2ccccc2[nH]c1=O`, for which the GI50 is 14.3 µM and the TGI amounted to 30 µM.
Take `Cc1ccc(CS/C(=C\c2ccc([N+](=O)[O-])cc2)C(=O)c2ccc(F)cc2)cc1`: the GI50 was 2.73 µM and the TGI turned out to be 8.42 µM.
For the molecule `O=C(O)Cn1ccc(=O)c2ccc([N+](=O)[O-])cc21`, the TGI was > 100 µM.
`O=C(c1ccco1)c1nc2ccc(C(F)(F)F)cc2[n+]([O-])c1C(F)(F)F`: the GI50 was 85.6 µM and the TGI is > 100 µM.
Turning to `C=C(CN1CCc2ccccc2C1)c1ccc(C(=O)Nc2cnccn2)cc1`, the GI50 is 36.1 µM and the TGI is > 100 µM.
On the same counts, the results for `CCCCC/C(C=C(C#N)C#N)=C/c1ccccc1` are 4.69 µM and 9.77 µM.
Consider `O=C(CI)NC1Oc2ccccc2-c2oc(=O)c(-c3ccccc3)cc21` (stereo not drawn), for which the GI50 was 8.46 µM and the TGI worked out at 26.6 µM.
As for `O=C1c2cccc(NCCN=Cc3cc(O)ccc3O)c2C(=O)c2c(NCCN=Cc3cc(O)ccc3O)cccc21`, the GI50 is 1.39 µM and the TGI turned out to be 2.93 µM.
On to `O=C1NNC=Nc2ccc(cc2)S(=O)(=O)c2ccc(cc2)N=CNNC1=O`, for which the TGI is > 100 µM.
For the molecule `CSc1ccc(C2=NN(C(C)=O)C(c3cc(C)cs3)C2)cc1` (stereo not drawn), the GI50 was 20 µM and the TGI was > 100 µM.
Take `Cn1cc(-c2cnc3ccc(NC(=O)Nc4ccc(F)c(Br)c4)cc3n2)cn1`: the GI50 was 1.79 µM and the TGI was determined as 3.5 µM.
Turning to `COc1cc(/C=C/c2cc(/C=C/c3ccc(O)c(OC)c3)n(-c3ccccc3)n2)ccc1O`, the GI50 was 0.605 µM and the TGI was found to be 2.46 µM.
`O=C1CNCCCN2CCN(CCCNCC(=O)Nc3ccc(cc3)S(=O)(=O)c3ccc(cc3)NC(=O)CNCCCN3CCN(CCCNCC(=O)Nc4ccc(cc4)S(=O)(=O)c4ccc(cc4)N1)CC3)CC2` showed a TGI of 42.7 µM.
In the case of `N#Cc1ccc(C#Cc2ccccc2C#CCCCCO)cc1`, the GI50 was 18.5 µM and the TGI is 33.1 µM.

For a further test, the system named is UO-31 renal. Put plainly: inhibition of tumour cell growth, NCI panel, 48 h.
As to `CCc1c(Oc2ccc(C(C)=O)cc2)c2ccccc2[nH]c1=O`, the GI50 is 19.5 µM and the TGI is > 100 µM.
For `Cn1c(N2NC(=O)C(N=Nc3ccc(S(N)(=O)=O)cc3)C2=O)nc(-c2ccco2)c(C#N)c1=O` (stereo not drawn) the same measures were > 50 µM and > 50 µM.
Take `Cc1ccc(CS/C(=C\c2ccc([N+](=O)[O-])cc2)C(=O)c2ccc(F)cc2)cc1`: the GI50 was 2.72 µM and the TGI was found to be 13.3 µM.
Take `O=C(O)Cn1ccc(=O)c2ccc([N+](=O)[O-])cc21`: the TGI was > 100 µM.
`O=C(c1ccco1)c1nc2ccc(C(F)(F)F)cc2[n+]([O-])c1C(F)(F)F`: the GI50 was > 100 µM and the TGI is > 100 µM.
For the molecule `C=C(CN1CCc2ccccc2C1)c1ccc(C(=O)Nc2cnccn2)cc1`, the GI50 is 24.4 µM and the TGI is > 100 µM.
Consider `CCCCC/C(C=C(C#N)C#N)=C/c1ccccc1`, for which the GI50 was 7.08 µM and the TGI came out at 22.1 µM.
For the molecule `O=C(CI)NC1Oc2ccccc2-c2oc(=O)c(-c3ccccc3)cc21` (stereo not drawn), the GI50 is 1.86 µM and the TGI is 3.28 µM.
For `O=C1c2cccc(NCCN=Cc3cc(O)ccc3O)c2C(=O)c2c(NCCN=Cc3cc(O)ccc3O)cccc21`, the GI50 was 1.71 µM and the TGI came out at 6.13 µM.
Regarding `CSc1cc(N=Nc2nc3ccccc3s2)c2ccccc2c1O`, the GI50 was 7.61 µM and the TGI came to 15.9 µM.
Turning to `O=C1NNC=Nc2ccc(cc2)S(=O)(=O)c2ccc(cc2)N=CNNC1=O`, the TGI is > 100 µM.
`CSc1ccc(C2=NN(C(C)=O)C(c3cc(C)cs3)C2)cc1` (stereo not drawn): the GI50 is 19.9 µM and the TGI is > 100 µM.
As to `Cn1cc(-c2cnc3ccc(NC(=O)Nc4ccc(F)c(Br)c4)cc3n2)cn1`, the GI50 was 1.42 µM and the TGI was 3.07 µM.
On the same counts, the results for `COc1cc(/C=C/c2cc(/C=C/c3ccc(O)c(OC)c3)n(-c3ccccc3)n2)ccc1O` are 0.287 µM and 1.53 µM.
For `O=C1CNCCCN2CCN(CCCNCC(=O)Nc3ccc(cc3)S(=O)(=O)c3ccc(cc3)NC(=O)CNCCCN3CCN(CCCNCC(=O)Nc4ccc(cc4)S(=O)(=O)c4ccc(cc4)N1)CC3)CC2`, the TGI is > 100 µM.
As to `N#Cc1ccc(C#Cc2ccccc2C#CCCCCO)cc1`, the GI50 was 16.9 µM and the TGI was 35.3 µM.
For `Cc1ccc(-c2c3c([nH]c(=O)c2C#N)-c2cc(F)ccc2OC3)cc1` the same measures were 41.3 µM and > 100 µM.
